This note sets out measurements from US9630963B2, “Quinolone derivatives as fibroblast growth factor inhibitors” (Principia Biopharma, Inc., priority 2013, dated 2017).

One assay has as its system SNU-16 cells. Briefly: Inhibition of FGFR2-dependent cell growth (Cell-titer Glo). Type of assay: cell-based. The conditions noted are these: Homo sapiens, SNU16 cells, 72 hrs incubation, cell viability by Cell-titer Glo. Here is the method: The cell-based effects of FGFR inhibitors were determined by measuring inhibition of FGFR-dependent cell line growth. […] Percent inhibition of cell growth was calculated as a percentage of untreated cell viability. The percent inhibition was plotted as a function of log compound concentration. The IC50 was then calculated for each compound using Prism software from GraphPad.

The next assay has as its target human recombinant FGFR1 (Homo sapiens, UniProt P11362). Kind of assay: FGFR family enzymatic activity assay (Caliper-based kinase assay), FGFR1. Particulars: FGFR1 0.5 nM, ATP 100 μM, peptide substrate 1 μM, room temperature 3 h. The format is biochemical. The text has this:
A Caliper-based kinase assay (Caliper Life Sciences, Hopkinton, Mass.) was used to measure inhibition of FGFR family (FGFR1, FGFR2, FGFR3, FGFR4) kinase activity of a compound of Formula (I′) or (I). […] This value is presented as the IC50.

The structures appear in SMILES notation.

Sequence of human recombinant FGFR1 (P11362 22-822): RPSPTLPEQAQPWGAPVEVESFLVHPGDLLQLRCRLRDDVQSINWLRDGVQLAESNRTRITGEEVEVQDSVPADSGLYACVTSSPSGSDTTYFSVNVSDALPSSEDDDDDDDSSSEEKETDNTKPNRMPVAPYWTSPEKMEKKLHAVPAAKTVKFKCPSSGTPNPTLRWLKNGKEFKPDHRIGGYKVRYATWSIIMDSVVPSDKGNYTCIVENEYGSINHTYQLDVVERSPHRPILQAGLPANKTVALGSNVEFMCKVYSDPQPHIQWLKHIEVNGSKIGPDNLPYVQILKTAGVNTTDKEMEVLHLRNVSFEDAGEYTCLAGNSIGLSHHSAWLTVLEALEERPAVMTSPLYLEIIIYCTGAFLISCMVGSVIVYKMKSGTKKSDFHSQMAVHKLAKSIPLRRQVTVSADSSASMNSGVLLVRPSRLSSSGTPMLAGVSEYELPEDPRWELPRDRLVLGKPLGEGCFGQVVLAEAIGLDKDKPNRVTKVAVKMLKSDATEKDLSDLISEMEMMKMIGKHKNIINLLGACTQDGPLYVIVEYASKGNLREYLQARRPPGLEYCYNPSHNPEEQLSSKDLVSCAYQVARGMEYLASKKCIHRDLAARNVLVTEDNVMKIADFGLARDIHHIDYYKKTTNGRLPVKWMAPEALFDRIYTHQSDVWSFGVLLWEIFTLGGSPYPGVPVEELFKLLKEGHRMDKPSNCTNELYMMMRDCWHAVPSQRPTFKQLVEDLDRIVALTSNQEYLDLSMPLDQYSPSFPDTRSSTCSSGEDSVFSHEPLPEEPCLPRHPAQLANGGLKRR

For the molecule `C=CC(=O)Nc1ccc(CCn2c(=O)c(-c3c(Cl)c(OC)cc(OC)c3Cl)cc3cnc(NCC(C)(C)O)nc32)nc1` [Example 84, N-(6-(2-(6-(2,6-dichloro-3,5-dimethoxyphenyl)-2-((2-hydroxy-2-methylpropyl)-amino)-7-oxopyrido[2,3-d]pyrimidin-8(7H)-yl)ethyl)pyridin-3-yl)acrylamide], the IC50 with SNU-16 cells was determined as 14.5 nM; on human recombinant FGFR1, 0.7 nM.
The corresponding values for `C=CC(=O)Nc1ccc(CCn2c(=O)c(-c3cc(OC)cc(OC)c3Cl)cc3cnc(NCCN4CCN(C(C)C)CC4)nc32)cc1` [Example 57, N-(4-(2-(6-(2-chloro-3,5-dimethoxyphenyl)-2-((4-isopropylpiperazin-1-yl-ethyl)amino)-7-oxopyrido[2,3-d]pyrimidin-8(7H)-yl)ethyl)phenyl)acylamide] are 0.4 nM and 0.4 nM.
As to `C=CC(=O)Nc1ccc(CCn2c(=O)c(-c3c(Cl)c(OC)cc(OC)c3Cl)cc3cnc(NCC(O)CO)nc32)nc1` (centres unmarked) [Example 88, N-(6-(2-(6-(2,6-dichloro-3,5-dimethoxyphenyl)-2-((2,3-dihydroxypropyl)amino)-7-oxopyrido[2,3-d]pyrimidin-8(7H)-yl)ethyl)pyridin-3-yl)acrylamide], the half-maximal inhibitory concentration (IC50) in the assay with SNU-16 cells stood at 24.6 nM; at human recombinant FGFR1, 0.6 nM.
In the case of `C=CC(=O)Nc1ccc(CCn2c(=O)c(-c3c(Cl)c(OC)cc(OC)c3Cl)cc3cnc(NC(CC)(CO)CO)nc32)cc1` [Example 92, N-(4-(2-(6-(2,6-dichloro-3,5-dimethoxyphenyl)-2-((1-hydroxy-2-(hydroxymethyl)-butan-2-yl)amino)-7-oxopyrido[2,3-d]pyrimidin-8(7H)-yl)ethyl)phenyl)acrylamide], the values for the concentration for half-maximal inhibition (IC50) with SNU-16 cells and on human recombinant FGFR1 were 6.3 nM and 1.1 nM, respectively.
Regarding `C=CC(=O)Nc1ccc(CCn2c(=O)c(-c3cc(OC)cc(OC)c3Cl)cc3cnc(NCCN4C[C@@H](C)O[C@@H](C)C4)nc32)cc1` [Example 58, N-(4-(2-(6-(2-chloro-3,5-dimethoxyphenyl)-2-((2-((2R,6S)-2,6-dimethyl-morpholino)ethyl)-amino)-7-oxopyrido[2,3-d]pyrimidin-8(7H)-yl)ethyl)phenyl)acrylamide], the half-inhibitory concentration (IC50) turned out to be 0.8 nM in the assay on SNU-16 cells and 1.3 nM at human recombinant FGFR1.
For the molecule `C=CC(=O)Nc1ccc(CCn2c(=O)c(-c3cc(OC)cc(OC)c3Cl)cc3cnc(NCC(C)(C)C)nc32)cn1` [Example 30, N-(5-(2-(6-(2-chloro-3,5-dimethoxyphenyl)-2-(neopentylamino)-7-oxopyrido[2,3-d]pyrimidin-8(7H)-yl)ethyl)pyridin-2-yl)acrylamide], the 50% inhibitory concentration (IC50) in the assay with SNU-16 cells was 5 nM; on human recombinant FGFR1, 5.1 nM.
Turning to `C=CC(=O)Nc1ccc(CCn2c(=O)c(-c3cc(OC)cc(OC)c3Cl)cc3cnc(NCC(C)(C)O)nc32)cc1` [Example 24, N-(4-(2-(6-(2-chloro-3,5-dimethoxyphenyl)-2-((2-hydroxy-2-methylpropyl)amino)-7-oxopyrido[2,3-d]pyrimidin-8(7H)-yl)ethyl)phenyl)acrylamide], the IC50 in the assay on SNU-16 cells turned out to be 1.8 nM; at human recombinant FGFR1, 1.7 nM.
The corresponding values for `C=CC(=O)Nc1ccc(CCn2c(=O)c(-c3c(Cl)c(OC)cc(OC)c3Cl)cc3cnc(NCC)nc32)nc1` [Example 79, N-(6-(2-(6-(2,6-dichloro-3,5-dimethoxyphenyl)-2-(ethylamino)-7-oxopyrido[2,3-d]pyrimidin-8(7H)-yl)ethyl)pyridin-3-yl)acrylamide] are 3.4 nM and 0.2 nM.
In the case of `C=CC(=O)Nc1ccc(CCn2c(=O)c(-c3cc(OC)cc(OC)c3Cl)cc3cnc(NCCN4[C@H](C)CNC[C@@H]4C)nc32)cc1` [Example 82, N-(4-(2-(6-(2-chloro-3,5-dimethoxyphenyl)-2-((2-((2R,6S)-2,6-dimethylpiperazin-1-yl)ethyl)amino)-7-oxopyrido[2,3-d]pyrimidin-8(7H)-yl)ethyl)phenyl)acrylamide], the half-maximal inhibitory concentration (IC50) in the assay with SNU-16 cells came out at 70.4 nM; at human recombinant FGFR1 it was 0.5 nM.
For the molecule `C=CC(=O)Nc1ccc(CCn2c(=O)c(-c3c(Cl)c(OC)cc(OC)c3Cl)cc3cnc(NC(C)C)nc32)nc1` [Example 80, N-(6-(2-(6-(2,6-dichloro-3,5-dimethoxyphenyl)-2-(isopropylamino)-7-oxopyrido[2,3-d]pyrimidin-8(7H)-yl)ethyl)pyridin-3-yl)acrylamide], the concentration for half-maximal inhibition (IC50) with SNU-16 cells was 9.6 nM; on human recombinant FGFR1 it was 0.5 nM.
As for `C=CC(=O)Nc1cccc(CCn2c(=O)c(-c3cc(OC)cc(OC)c3Cl)cc3cnc(NCCN4CCOCC4)nc32)c1` [Example 35, N-(3-(2-(6-(2-chloro-3,5-dimethoxyphenyl)-2-((2-morpholinoethyl)amino)-7-oxo-pyrido[2,3-d]pyrimidin-8(7H)-yl)ethyl)phenyl)acrylamide], the half-inhibitory concentration (IC50) turned out to be 3.6 nM in the assay with SNU-16 cells and 6 nM at human recombinant FGFR1.
Turning to `C=CC(=O)Nc1ccc(CCn2c(=O)c(-c3cc(OC)cc(OC)c3Cl)cc3cnc(NCCN4CCOCC4)nc32)c(F)c1` [Example 55, N-(4-(2-(6-(2-chloro-3,5-dimethoxyphenyl)-2-((2-morpholinoethyl)amino)-7-oxopyrido[2,3-d]pyrimidin-8(7H)-yl)ethyl)-3-fluorophenyl)acrylamide], the IC50 in the assay with SNU-16 cells came to 4.3 nM; on human recombinant FGFR1, 2.2 nM.
As to `C=CC(=O)Nc1ccc(CCn2c(=O)c(-c3c(Cl)c(OC)cc(OC)c3Cl)cc3cnc(NC(C)(C)CO)nc32)cc1` [Example 77, N-(4-(2-(6-(2,6-dichloro-3,5-dimethoxyphenyl)-2-((1-hydroxy-2-methylpropan-2-yl)amino)-7-oxopyrido[2,3-d]pyrimidin-8(7H)-yl)ethyl)phenyl)acrylamide], the IC50 in the assay with SNU-16 cells is 7 nM; on human recombinant FGFR1, 2.3 nM.
Consider `CNc1ncc2cc(-c3cc(OC)cc(OC)c3Cl)c(=O)n(CCc3ccc(NS(=O)(=O)C=C(C)C)cc3)c2n1` [Example 45, N-(4-(2-(6-(2-chloro-3,5-dimethoxyphenyl)-2-(methylamino)-7-oxopyrido[2,3-d]pyrimidin-8(7H)-yl)ethyl)phenyl)-2-methylprop-1-ene-1-sulfonamide], for which the figures for the concentration for half-maximal inhibition (IC50) with SNU-16 cells and at human recombinant FGFR1 were 48 nM and 4 nM, respectively.
The corresponding values for `C=CC(=O)Nc1ccc(CCn2c(=O)c(-c3c(Cl)c(OC)cc(OC)c3Cl)cc3cnc(NC4CCOCC4)nc32)cc1` [Example 89, N-(4-(2-(6-(2,6-dichloro-3,5-dimethoxyphenyl)-7-oxo-2-((tetrahydro-2H-pyran-4-yl)amino)pyrido[2,3-d]pyrimidin-8(7H)-yl)ethyl)phenyl)acrylamide] are 4.8 nM and 0.2 nM.
Turning to `C=CC(=O)Nc1ccc(CCn2c(=O)c(-c3c(Cl)c(OC)cc(OC)c3Cl)cc3cnc(NC(C)(CO)CO)nc32)nc1` [Example 99, N-(6-(2-(6-(2,6-dichloro-3,5-dimethoxyphenyl)-2-((1,3-dihydroxy-2-methylpropan-2-yl)-amino)-7-oxopyrido[2,3-d]pyrimidin-8(7H)-yl)ethyl)pyridin-3-yl)acrylamide], the IC50 with SNU-16 cells was determined as 2.6 nM; at human recombinant FGFR1, 1.2 nM.
The matching figures for `C=CC(=O)Nc1ccc(CCn2c(=O)c(-c3c(Cl)c(OC)cc(OC)c3Cl)cc3cnc(NC(CO)CO)nc32)nc1` [Example 87, N-(6-(2-(6-(2,6-dichloro-3,5-dimethoxyphenyl)-2-((1,3-dihydroxypropan-2-yl)amino)-7-oxopyrido[2,3-d]pyrimidin-8(7H)-yl)ethyl)pyridin-3-yl)acrylamide]: 169 nM and 1.2 nM.
The corresponding values for `C=CC(=O)Nc1ccc(CCn2c(=O)c(-c3cc(OC)cc(OC)c3F)cc3cnc(NCCN4CCOCC4)nc32)cc1F` [Example 53, N-(2-fluoro-4-(2-(6-(2-fluoro-3,5-dimethoxyphenyl)-2-((2-morpholinoethyl)amino)-7-oxopyrido[2,3-d]pyrimidin-8(7H)-yl)ethyl)phenyl)acrylamide] are 71.3 nM and 28.9 nM.
In the case of `C=CC(=O)Nc1ccc(CCn2c(=O)c(-c3cc(OC)cc(OC)c3Cl)cc3cnc(NC(C)(C)CN4CCOCC4)nc32)cc1` [Example 67, N-(4-(2-(6-(2-chloro-3,5-dimethoxyphenyl)-2-((2-methyl-1-morpholinopropan-2-yl)amino)-7-oxopyrido[2,3-d]pyrimidin-8(7H)-yl)ethyl)phenyl)acrylamide], the IC50 stood at 9.7 nM in the assay on SNU-16 cells and 2.3 nM on human recombinant FGFR1.
Consider `C=CC(=O)Nc1ccc(CCn2c(=O)c(-c3cc(OC)cc(OC)c3Cl)cc3cnc(NCCn4ccnc4)nc32)cc1` [Example 50, N-(4-(2-(2-((2-(1H-imidazol-1-yl)ethyl)amino)-6-(2-chloro-3,5-dimethoxyphenyl)-7-oxopyrido[2,3-d]pyrimidin-8(7H)-yl)ethyl)phenyl)acrylamide], for which the 50% inhibitory concentration (IC50) was 11.7 nM with SNU-16 cells and 7.4 nM at human recombinant FGFR1.
Regarding `C=CC(=O)Nc1ccc(CCn2c(=O)c(-c3cc(OC)cc(OC)c3Cl)cc3cnc(NCCN4CCOCC4)nc32)cc1Cl` [Example 56, N-(4-(2-(6-(2-chloro-3,5-dimethoxyphenyl)-2-((2-morpholinoethyl)amino)-7-oxopyrido[2,3-d]pyrimidin-8(7H)-yl)ethyl)-2-chlorophenyl)acrylamide], the results for the IC50 in the assay on SNU-16 cells and on human recombinant FGFR1 were 5 nM and 3.7 nM, respectively.
As for `C=CC(=O)Nc1ccc(CCn2c(=O)c(-c3c(Cl)c(OC)cc(OC)c3Cl)cc3cnc(NN4CCN(C)CC4)nc32)cc1` [Example 105, N-(4-(2-(6-(2,6-dichloro-3,5-dimethoxyphenyl)-2-((4-methylpiperazin-1-yl)amino)-7-oxopyrido[2,3-d]pyrimidin-8(7H)-yl)ethyl)phenyl)acrylamide], the half-maximal inhibitory concentration (IC50) with SNU-16 cells came to 7.8 nM; at human recombinant FGFR1, 1.2 nM.

The IC50 is the concentration that gives 50% inhibition.
